Legend:
[1] = tested on: bean aphid (Aphis fabae Scop.); assay: Bean Aphid Foliage Spray Test; format: in vivo; set-up: key: A: excellent control; B: partial control; C: no control; settings: 500 parts per million foliage spray; 24 hour holding period
Description: (§1) Suspensions of the test compounds were prepared by dissolving one gram of compound in 50 milliliters of acetone in which had been dissolved 0.1 gram (10 percent of the weight of compound) of an alkylphenoxy polyethoxyethanol surfactant, as an emulsifying or dispersing agent. The resulting solution was mixed into 150 milliliters of water to give roughly 200 milliliters of a suspension containing the compound in finely divided form. The thus-prepared stock suspension contained 0.5 percent by weight of compound. The test concentrations in parts per million by weight employed in the tests described hereinbelow were obtained by appropriate dilutions of the stock suspension with water. The test procedures were as follows:
Adults and nymphal stages of the bean aphid (Aphis fabae Scop.) reared on potted dwarf nasturtium plants at 65°-70° F. and 50-70 percent relative humidity, constituted the test insects. For testing purposes, the number of aphids per pot was standardized to 100-150 by trimming plants containing excess aphids.
The test compounds were formulated by diluting the stock suspension with water to give a suspension containing 500 parts of test compound per million parts of final formulation.
The potted plants (one pot per compound tested) infested with 100-150 aphids, were placed on a revolving turntable and sprayed with 100-110 milliliters of test compound formulation by use of a DeVilbiss spray gun set at 40 psig. air pressure. This application, which lasted 25 seconds, was sufficient to wet the plants to run-off. As a control, 100-110 milliliters of a water-acetone-emulsifier solution containing no test compound were also sprayed on infested plants. After spraying, the pots were placed on their sides on a sheet of white standard mimeograph paper which had been previously ruled to facilitate counting. Temperature and humidity in the test room during the 24 hour holding period were 65°-70° F. and 50-70 percent, respectively. Aphids which fell onto the paper and were unable to remain standing after being uprighted were considered dead. Aphids remaining on the plants were observed closely for movement and those which were unable to move the length of the body upon stimulation by prodding were considered dead. Percent mortality was recorded for various concentration levels.

[2] = tested on: two-spotted mite (Tetranychus urticae Koch); assay: Mite Foliage Spray Test; format: in vivo; set-up: key: A: excellent control; B: partial control; C: no control; settings: 500 parts per million foliage spray; six days
Description: as §1
Adults and nymphal stages of the two-spotted mite (Tetranychus urticae Koch), reared on Tendergreen bean plants at 80±5 percent relative humidity, were the test organisms. Infested leaves from a stock culture were placed on the primary leaves of two bean plants six to eight inches in height, growing in a two-and-a-half inch clay pot. 150-200 Mites, a sufficient number for testing, transferred from the excised leaves to the fresh plants in a period of twenty four hours. Following the twenty four hour transfer period, the excised leaves were removed from the infested plants. The test compounds were formulated by diluting the stock suspension with water to give a suspension containing 500 parts of test compound per million parts of final formulation. The potted plants (one pot per compound) were placed on a revolving turntable and sprayed with 100-110 milliliters of test compound formulation by use of a DeVilbiss spray gun set at 40 psig. air pressure. This application, which lasted 25 seconds, was sufficient to wet the plants to run-off. As a control, 100-110 milliliters of a water solution containing acetone and emulsifier in the same concentrations as the test compound formulation, but containing no test compound, were also sprayed on infested plants. The sprayed plants were held at 80±5 percent relative humidity for six days, after which a mortality count of motile forms was made. Microscopic examination for motile forms was made on the leaves of the test plants. Any individual which was capable of locomotion upon prodding was considered living.

[3] = tested on: Mexican bean beetle (Epilachna varivestis, Muls.); assay: Mexican Bean Beetle Leaf Spray Test; format: in vivo; set-up: key: A: excellent control; B: partial control; C: no control; settings: 500 parts per million leaf spray; fourth instar larvae; three days
Description: as §1
Fourth instar larvae of the Mexican bean beetle (Epilachna varivestis, Muls.), reared on Tendergreen bean plants at a temperature of 80°±5° F. and 50±5 percent relative humidity, were the test insects.
The test compounds were formulated by diluting the stock suspension with water to give a suspension containing 500 parts of test compound per million parts of final formulation. Potted Tendergreen bean plants of standard height and age were placed on a revolving turntable and sprayed with 100-110 milliliters of test compound formulation by use of a DeVilbiss spray gun set at 10 psig air pressure. This application, which lasted 25 seconds, was sufficient to wet plants to run-off. As a control, 100-110 milliliters of a water-acetone-emulsifier solution containing no test compound were also sprayed on infested plants. When dry, the paired leaves were separated and each was placed in a 9 centimeter Petri dish lined with moistened filter paper. Five randomly selected larvae were introduced into each dish, and the dishes were closed. The closed dishes were labeled and held at a temperature of 80°±5° F. for three days. Although the larvae could easily consume the leaf within 24 to 48 hours, no more food was added. Larvae which were unable to move the length of the body, even upon stimulation, were considered dead.

[4] = tested on: house flies (Musca domestica, L.); assay: Fly Bait Test; format: in vivo; set-up: key: A: excellent control; B: partial control; C: no control; settings: 500 parts per million bait in sugar solution; twenty four hours
Description: as §1
Four to six day old adult house flies (Musca domestica, L.) reared according to the specifications of the Chemical Specialties Manufacturing Association (Blue Book, McNair-Dorland Co., N.Y. 1954; pages 243-244, 261) under controlled conditions of 80°±5° F. and 50±5 percent relative humidity, were the test insects. The flies were immobilized by anesthetizing with carbon dioxide and twenty five immobilized individuals, males and females, were transferred to a cage consisting of a standard food strainer about five inches in diameter which was inverted over a wrapping-paper-covered surface. The test compounds were formulated by diluting the stock suspension with a 10 percent (by weight) sugar solution to give a suspension containing 500 parts of test compound per million parts of final formulation, by weight. Ten milliliters of the test formulation were added to a souffle cup containing a one-inch square of an absorbent cotton pad. This bait cup was introduced and centered on the blotting paper under the food strainer prior to admitting the anesthetized flies. The caged flies were allowed to feed on the bait for twenty four hours, at a temperature of 80°±5° F. and the relative humidity of 50±5 percent.

[5] = Peroral toxicity to mammals (rat); settings: in vivo, po, mortality rate of 50 percent, read-out: A.O. Rat LD50
Description: Certain of these compositions were also evaluated to determine their peroral toxicity to mammals. The animal selected for this experiment was the rat. The test results obtained are expressed in terms of the number of milligrams of compositions per kilogram of weight of the animal required to achieve a mortality rate of 50 percent (LD50).

Row | Structure (SMILES) | Aphid, pesticidal activity rating [1] | Mite, pesticidal activity rating [2] | M. Bean Beetle, pesticidal activity rating [3] | H. Fly, pesticidal activity rating [4] | LD50 [5] [mg/kg]
1 | CN(SSC(C)(C)C)C(=O)ON=C1SC(C)(C)C(=O)N1C | A | C | A | A | 299
2 | CN(SSC(C)(C)C)C(=O)ON=C1SCCS1 | A | C | A | A | 5.6
